In ChEMBL document CHEMBL2073866, “Cellular pharmacokinetic aspects of reversal effect of itraconazole on P-glycoprotein-mediated resistance of anticancer drugs” (Biol Pharm Bull, 1999) one finds Activity data, which are given here for 4 molecules.

Series [1] addresses T1, ATP-dependent translocase ABCB1 (Homo sapiens, UniProt P08183). The series is described as follows: TP_TRANSPORTER: inhibition of Azidopine photoaffinity labelling (Azidopine: 0.4 uM, Daunorubicin: 400 uM) in membranes from MDR1-expressing LLC-PK1 cells. Type of series: functional, cell membranes, Membrane. To be noted: pig, llc-pk1, 400 µM.
Series [2] deals with T1, ATP-dependent translocase ABCB1. The experiment in a line: TP_TRANSPORTER: transepithelial transport (basal to apical) in MDR1-expressing LLC-PK1 cells. The note with it: pig. Type of series: functional, cell-based.
For series [3] the target is unchanged. The experiment in a line: TP_TRANSPORTER: inhibition of Azidopine photoaffinity labelling (Azidopine: 0.4 uM, Doxorubicin: 400 uM) in membranes from MDR1-expressing LLC-PK1 cells. The series is classed as functional, cell membranes, Membrane. The note with it: pig, llc-pk1, 400 µM.
Series [4] has the same target. The series is described as follows: TP_TRANSPORTER: inhibition of Digoxin transepithelial transport (basal to apical) (Digoxin: 0.1 uM, Itraconazole: 100 uM) in MDR1-expressing LLC-PK1 cells. The series is classed as functional, cell-based. To be noted: pig, llc-pk1, 100 µM.
For series [5] the target is unchanged. The series is described as follows: TP_TRANSPORTER: inhibition of Vinblastine transepithelial transport (basal to apical) (Vinblastine: 0.1 uM, Itraconazole: 100 uM) in MDR1-expressing LLC-PK1 cells. Type of series: functional, cell-based. The note with it: pig, llc-pk1, 100 µM.
For series [6] the target is unchanged. The experiment in a line: TP_TRANSPORTER: inhibition of Doxorubicin transepithelial transport (basal to apical) (Doxorubicin: 0.1 uM, Itraconazole: 100 uM) in MDR1-expressing LLC-PK1 cells. Type of series: functional, cell-based. The note with it: pig, llc-pk1, 100 µM.
For series [7] the target is unchanged. The experiment in a line: TP_TRANSPORTER: inhibition of Azidopine photoaffinity labelling in membranes from MDR1-expressing LLC-PK1 cells. Type of series: functional, cell membranes, Membrane. To be noted: pig.
Series [8] shares this target. The experiment in a line: TP_TRANSPORTER: inhibition of Azidopine photoaffinity labelling (Azidopine: 0.4 uM, Vinblastine: 400 uM) in membranes from MDR1-expressing LLC-PK1 cells. Type of series: functional, cell membranes, Membrane. To be noted: pig, llc-pk1, 400 µM.

T1 sequence (P08183 whole entry): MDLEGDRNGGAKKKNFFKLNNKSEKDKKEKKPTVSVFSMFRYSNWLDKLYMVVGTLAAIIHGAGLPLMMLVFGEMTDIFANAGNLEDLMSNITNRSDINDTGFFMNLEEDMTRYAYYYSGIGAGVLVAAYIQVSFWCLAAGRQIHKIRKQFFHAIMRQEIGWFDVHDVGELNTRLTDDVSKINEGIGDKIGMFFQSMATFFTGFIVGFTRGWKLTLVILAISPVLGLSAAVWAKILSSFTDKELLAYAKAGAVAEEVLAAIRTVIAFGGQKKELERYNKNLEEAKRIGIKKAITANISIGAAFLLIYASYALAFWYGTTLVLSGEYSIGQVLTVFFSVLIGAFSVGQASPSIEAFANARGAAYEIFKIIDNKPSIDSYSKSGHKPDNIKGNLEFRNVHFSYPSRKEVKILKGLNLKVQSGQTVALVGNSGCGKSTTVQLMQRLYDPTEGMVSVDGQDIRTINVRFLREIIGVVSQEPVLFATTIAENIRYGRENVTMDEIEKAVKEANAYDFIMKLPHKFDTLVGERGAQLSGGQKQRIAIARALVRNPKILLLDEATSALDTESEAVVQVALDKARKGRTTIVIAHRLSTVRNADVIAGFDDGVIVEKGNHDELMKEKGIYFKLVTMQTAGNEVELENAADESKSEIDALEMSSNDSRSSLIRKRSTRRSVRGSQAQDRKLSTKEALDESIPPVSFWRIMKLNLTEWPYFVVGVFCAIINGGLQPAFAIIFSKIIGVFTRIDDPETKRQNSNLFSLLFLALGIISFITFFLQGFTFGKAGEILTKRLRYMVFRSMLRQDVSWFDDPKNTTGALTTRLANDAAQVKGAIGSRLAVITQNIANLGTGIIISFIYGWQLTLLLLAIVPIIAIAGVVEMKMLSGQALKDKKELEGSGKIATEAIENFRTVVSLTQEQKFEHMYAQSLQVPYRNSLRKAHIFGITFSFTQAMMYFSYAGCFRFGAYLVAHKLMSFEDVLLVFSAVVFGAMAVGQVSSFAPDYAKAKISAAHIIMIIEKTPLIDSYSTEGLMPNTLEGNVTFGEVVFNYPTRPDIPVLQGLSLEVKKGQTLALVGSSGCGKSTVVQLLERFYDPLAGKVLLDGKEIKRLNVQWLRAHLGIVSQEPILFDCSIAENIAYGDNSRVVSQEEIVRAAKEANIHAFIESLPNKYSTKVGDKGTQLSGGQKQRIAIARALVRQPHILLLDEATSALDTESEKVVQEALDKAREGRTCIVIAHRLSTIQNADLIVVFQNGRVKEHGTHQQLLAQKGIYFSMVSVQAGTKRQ

`COc1cccc2c1C(=O)c1c(O)c3c(c(O)c1C2=O)C[C@@](O)(C(C)=O)C[C@@H]3O[C@H]1C[C@H](N)[C@H](O)[C@H](C)O1` [DAUNORUBICIN]: the Activity result in series [1] was “inhibitor [+]”; in series [2] it was “substrate [+]”.

Regarding `COc1cccc2c1C(=O)c1c(O)c3c(c(O)c1C2=O)C[C@@](O)(C(=O)CO)C[C@@H]3O[C@H]1C[C@H](N)[C@H](O)[C@H](C)O1` [DOXORUBICIN], the Activity result in series [3] is “inhibitor [+]”.

`CCC(C)n1ncn(-c2ccc(N3CCN(c4ccc(OCC5COC(Cn6cncn6)(c6ccc(Cl)cc6Cl)O5)cc4)CC3)cc2)c1=O` (stereo not drawn) [ITRACONAZOLE]: the Activity result in series [4], in series [5], in series [6] and in series [7] was “inhibitor [+]” in each case.

Regarding `CC[C@]1(O)C[C@@H]2CN(CCc3c([nH]c4ccccc34)[C@@](C(=O)OC)(c3cc4c(cc3OC)N(C)[C@H]3[C@@](O)(C(=O)OC)[C@H](OC(C)=O)[C@]5(CC)C=CCN6CC[C@]43[C@@H]65)C2)C1` [VINBLASTINE], the Activity result in series [8] was “inhibitor [+]”.
